Non-standard residues stand in square brackets, D forms with d. No end group written: not given here. tri‑branched mPEG‑MAL 50 kDa = tri-branched maleimide-activated monomethoxy PEG, 50 kDa; Aib = CC(C)(N)C(=O)O
Key:
Type in all cases: in vivo
[1] = tested on: obesity animal model (C57BL/6 mice, 60% high-fat diet); experiment: ipGTT in obesity model, Examples 2 and 6 (Experimental Example 6); settings: 2 g/kg glucose i.p. after 2 weeks of 20 nmol/kg s.c. once every other day; FIG. 6
Experimental: (§1) To check a preventing or therapeutic effect of the conjugates of Examples 2 and 6, which had different amino acid sequences, on obesity or diabetes, an animal model of obesity was prepared by feeding a 60% high-fat diet to normal C57BL/6 mice (approximately 6 weeks old) for approximately 24 weeks, and increasing the body weights of the mice to approximately 50 g in average. Thereafter, each of the conjugates of Examples 2 or 6 was administered by subcutaneous injection at a dose of 20 nmol/kg once every other day for 2 weeks. As the control, PBS was administered instead of the conjugates of Examples. For 2 weeks when the conjugates of Examples 2 or 6 were administered, changes in blood glucose with time were measured. Also, to perform an intraperitoneal glucose tolerance test (ipGTT), 2 g/kg of glucose was administered intraperitoneally after the 2-week administration of the drug, and changes in blood glucose with the elapse of time (0, 15, 30, 60, 90, and 120 minutes) were measured.

[2] = tested on: obesity animal model (C57BL/6 mice, 60% high-fat diet); experiment: body weight, food intake and blood glucose in high-fat diet obesity animal model (Experimental Example 2); settings: for Blood glucose / Body weight / Food intake: 20 nmol/kg s.c. once every other day; for Food intake: cumulative
Experimental: First, an obesity animal model was prepared by feeding a 60% high-fat diet to normal C57BL/6 mice (approximately 6 weeks old) for approximately 24 weeks, and increasing the body weights of the mice to approximately 50 g on average. Thereafter, the conjugate of Example 2 was administered by subcutaneous injection at a dose of 20 nmol/kg once every other day for 2 weeks. […] For 2 weeks when the drug was administered, the food intake, the blood glucose, and the body weights were measured once every other day at given points of time.
In this case, the body weights and the blood glucose were expressed in the percentage (%) on the basis of 100% before the administration (Day 0).

[3] = tested on: obesity animal model (C57BL/6 mice, 60% high-fat diet); experiment: intraperitoneal glucose tolerance test (ipGTT) in obesity model after 2-week administration (Experimental Example 3); design: blood glucose in ipGTT: unit not given here; settings: after 2 weeks of 20 nmol/kg s.c. once every other day
Experimental: This experiment was performed in the same manner as in Experimental Example 2, and then the glucose tolerance was evaluated in a mouse model using an intraperitoneal glucose tolerance test (ipGTT).
After the 2-weeks administration of the drugs was completed in the same manner as in Experimental Example 2, 2 g/kg of glucose was administered intraperitoneally to measure a change in blood glucose with the elapse of time (0, 15, 30, 60, 90, and 120 minutes).

[4] = tested on: obesity animal model (C57BL/6 mice, 60% high-fat diet); experiment: final body weight with different dose and dosing frequency in obesity model (Experimental Example 5); settings: FIG. 4
Experimental: First, an obesity animal model was prepared by feeding a 60% high-fat diet to normal C57BL/6 mice (approximately 6 weeks old) for approximately 24 weeks, and increasing the body weights of the mice to approximately 50 g in average. After 2 weeks, the final body weights of the mice were measured.

[5] = tested on: obesity animal model (C57BL/6 mice, 60% high-fat diet); experiment: blood glucose in obesity model, Examples 2 and 6 (Experimental Example 6); settings: 20 nmol/kg s.c. once every other day for 2 weeks; FIG. 5
Experimental: as §1

[6] = tested on: animal model of non-alcoholic fatty liver diseases (C57BL/6 mice, 60% high-fat diet); experiment: non-alcoholic fatty liver disease model, 60% high-fat diet (Experimental Example 7); settings: 20 nmol/kg s.c. once every other day for 2 weeks
Experimental: Specifically, first of all, a laboratory animal model of non-alcoholic fatty liver diseases was prepared by feeding a 60% high-fat diet to normal C57BL/6 mice (approximately 6 weeks old) for approximately 24 weeks, and increasing the body weights of the mice to approximately 50 g in average. Thereafter, the conjugate of Example 2 was administered by subcutaneous injection at a dose of 20 nmol/kg once every other day for 2 weeks. […] After the 2-week administration of the drug, blood was collected from the mice to measure a serum cholesterol concentration, and the livers were extracted, weighed, embedded in paraffin, and then microtomed into thin slices. Thereafter, the liver biopsy was conducted using a hematoxylin & eosin (H&E).

[7] = tested on: animal model of non-alcoholic fatty liver diseases (C57BL/6 mice, high-trans-fat diet); experiment: liver biopsy and NAFLD activity score, high-trans-fat diet model (Experimental Example 9); settings: 20 nmol/kg s.c. once every three days for 4 weeks
Experimental: After the experiment was conducted in the same manner as in Experimental Example 8, a liver biopsy was conducted and an NAFLD activity score (NAS) was measured to check a preventing or therapeutic effect on non-alcoholic fatty liver diseases. An experiment was performed in the same manner as in Experimental Example 8, after the 4-week administration of the conjugate of Example 2, the mouse livers were extracted, embedded in paraffin, and then microtomed into thin slices. Thereafter, a hematoxylin & eosin (H&E) stain and an oil-red-O stain were conducted.

[8] = tested on: animal model of non-alcoholic fatty liver diseases (C57BL/6 mice, high-trans-fat diet); experiment: non-alcoholic fatty liver disease model, high-trans-fat diet (Experimental Example 8); settings: 20 nmol/kg s.c. once every three days for 4 weeks, also lowered vs liraglutide
Experimental: First of all, a laboratory animal model of non-alcoholic fatty liver diseases was prepared by feeding a high-trans-fat diet, which contained 40% high fats, 20% fructose, and 2% cholesterol, to normal C57BL/6 mice (approximately 6 weeks old) for approximately 16 weeks. Thereafter, the conjugate of Example 2 was administered by subcutaneous injection at a dose of 20 nmol/kg once every three days for 4 weeks. […] After the 4-week experiment was completed, a level of serum cholesterol, the liver weights, and the hepatic triglycerides (hepatic TGs) were measured.

[9] = 20 nmol/kg s.c. once every other day for 2 weeks
[10] = day 0 (before administration = 100%)

In the case of “Example 2: Conjugate of polypeptide H(Aib)QGTFTSDYSKYLDEQAAKEFVQWLMNTC (SEQ ID NO. 2) and tri-branched mPEG-MAL (MW: 50 kDa) (H[Aib]QGTFTSDYSKYLDEQAAKEFVQWLMNTC(tri‑branched mPEG‑MAL 50 kDa); lactam (positions not given here); not fully specified (bridges); printed as H(Aib)QGTFTSDYSKYLDEQAAKEFVQWLMNTC)”, the “increase in blood glucose in ipGTT vs control” value [1] is reported as “an increase in blood glucose was significantly reduced”, the “level of blood glucose reduced compared to before the administration” value [2, 9] is reported as “approximately 80%” and the Blood glucose [2, 10] is reported as 100%. It also gave a Body weight [2, 10] of 100%, a Food intake ([2]; day 0) of 0 g and a Blood glucose ([2]; day 2, % of Day 0) of 87%. For the same substance, the Body weight ([2]; day 2, % of Day 0) was 97%, the Food intake ([2]; day 2) was 4 g and the Blood glucose ([2]; day 4, % of Day 0) was 75%. It also gave a Body weight ([2]; day 4, % of Day 0) of 94%, a Food intake ([2]; day 4) of 8 g and a Blood glucose ([2]; day 6, % of Day 0) of 48%. For the same substance, the Body weight ([2]; day 6, % of Day 0) was 89%, the Food intake ([2]; day 6) was 11 g and the Blood glucose ([2]; day 8, % of Day 0) was 32%. It also gave a Body weight ([2]; day 8, % of Day 0) of 82%, a Food intake ([2]; day 8) of 13 g and a Blood glucose ([2]; day 10, % of Day 0) of 35%. The Body weight ([2]; day 10, % of Day 0) was 74%, the Food intake ([2]; day 10) was 15 g and the Blood glucose ([2]; day 12, % of Day 0) was 32%. For the same substance, the Body weight ([2]; day 12, % of Day 0) was 68%, the Food intake ([2]; day 12) was 17 g and the Blood glucose ([2]; day 14, % of Day 0) was 18%. For the same substance, the Body weight ([2]; day 14, % of Day 0) was 61%, the “blood glucose in ipGTT” value ([3]; 0 min after 2 g/kg glucose i.p.) was 40 and the “blood glucose in ipGTT” value ([3]; 15 min after 2 g/kg glucose i.p.) was 216. The “blood glucose in ipGTT” value ([3]; 30 min after 2 g/kg glucose i.p.) was 172, the “blood glucose in ipGTT” value ([3]; 60 min after 2 g/kg glucose i.p.) was 61 and the “blood glucose in ipGTT” value ([3]; 90 min after 2 g/kg glucose i.p.) was 48. The “blood glucose in ipGTT” value ([3]; 120 min after 2 g/kg glucose i.p.) was 44, the “increase in blood glucose in ipGTT vs non-treated group” value [3] was “an increase in blood glucose was significantly reduced” and the “effect on body weight loss” value [4, 9] was “significant effect on the body weight loss”. The “effect on body weight loss with extended interval” value ([4]; 40 nmol/kg s.c. once a week for 2 weeks) was “the same effect on the body weight loss”, the “dose dependence of body weight loss” value ([4]; 20 vs 40 nmol/kg s.c. once every other day for 2 weeks) was “dose-dependent response” and the “level of blood glucose vs control” value [5] was “a level of blood glucose was lowered”. The “hepatic steatosis in liver biopsy vs non-treated group” value ([6]; H&E, also reduced vs liraglutide, FIG. 9) was “significantly reduced”, the “level of serum cholesterol vs non-treated group” value ([6]; also lowered vs liraglutide, FIG. 7) was “significantly lowered” and the “liver weights vs non-treated group” value ([6]; also lowered vs liraglutide, FIG. 8) was “significantly lowered”. For the same substance, the “hepatic steatosis vs non-treated group and positive control” value ([7]; FIG. 13) was “significantly reduced”, the “NAFLD activity score (NAS) vs non-treated group and positive control” value ([7]; FIG. 14) was “significantly reduced” and the “level of serum cholesterol vs non-treated group” value ([8]; FIG. 10) was “significantly lowered”. The “liver weights vs non-treated group” value ([8]; FIG. 11) was “significantly lowered” and the “hepatic triglycerides vs non-treated group” value ([8]; FIG. 12) was “significantly lowered”.

From patent US12338270B2, “Pharmaceutical composition comprising polypeptide” (D&D Pharmatech Inc., priority 2018, dated 2025)
